Assay results: US8889668B2, “Oxadiazole diaryl compounds” (Merck Serono SA, priority 2007, dated 2014)

How the values were obtained:
S1P1 [1] = target: T1, S1P1 (Homo sapiens (Human), UniProt P21453); assay: Receptor binding assay, [33P]sphingosine 1-phosphate, membranes from CHO cells expressing S1P1; details: [33P]S1P 25 pM, SPA
Description: (§1) Receptor binding assay: Membranes were prepared from CHO cells expressing S1P1 or S1P3 for use in ligand and […] binding studies. Cells were suspended in 50 mM TRIS, pH 7.4, 2 mM EDTA, 250 mM Sucrose (buffer A) and 1× Complete protease inhibitor cocktail (Roche), and disrupted at 4° C. by nitrogen decompression using a cell disruption bomb (Parr Instrument). Following centrifugation at 1000 RPM for 10 min at 4° C., the supernatant was suspended in buffer A and centrifuged again at 19000 RPM for 60 min at 4° C. The pellet was then suspended in 10 mM HEPES, pH 7.4, 1 mM EDTA, 250 mM Sucrose (Buffer B), and 1× Complete EDTA-free protease inhibitor cocktail and homogenized using a potter. Membranes were flash frozen in liquid nitrogen and stored at −80° C. [33P]sphingosine 1-phosphate (3000 Ci/mmol; American Radiolabeled Chemicals, Inc.) was added to test compounds in DMSO. Membranes and WGA SPA beads (GE Healthcare) were added to give a final volume of 100 μl in 96-well plates with assay concentrations of 25 pM or 10 pM [33P]sphingosine 1-phosphate (respectively for S1P1 or S1P3), 50 mM HEPES, pH 7.5, 5 mM MgCl2, 100 mM NaCl, 0.4% fatty acid-free BSA, 1-5 μg/well of proteins and 100 μg/well of WGA SPA beads. Binding was performed for 60 min at room temperature on a shaker and bound radioactivity was measured on a PerkinElmer 1450 MicroBeta counter. Specific binding was calculated by subtracting remaining radioactivity in the presence of 1000-fold excess of unlabeled S1P. Binding data were analyzed using the GraphPad Prism program.

S1P1 [2] = target: T1, S1P1; assay: 35S-GTPγS binding, membranes from CHO cells expressing S1P1; assay type: biochemical; details: 60 min 30° C., read-out: S1P1 GTPgS EC50
S1P3 = S1P3 (Homo sapiens (Human), UniProt Q99500); assay: 35S-GTPγS binding, membranes from CHO cells expressing S1P3; assay type: biochemical; details: 60 min 30° C., read-out: S1P3 GTPgs EC50
Sequence of S1P3 (Q99500 whole entry, species assumed): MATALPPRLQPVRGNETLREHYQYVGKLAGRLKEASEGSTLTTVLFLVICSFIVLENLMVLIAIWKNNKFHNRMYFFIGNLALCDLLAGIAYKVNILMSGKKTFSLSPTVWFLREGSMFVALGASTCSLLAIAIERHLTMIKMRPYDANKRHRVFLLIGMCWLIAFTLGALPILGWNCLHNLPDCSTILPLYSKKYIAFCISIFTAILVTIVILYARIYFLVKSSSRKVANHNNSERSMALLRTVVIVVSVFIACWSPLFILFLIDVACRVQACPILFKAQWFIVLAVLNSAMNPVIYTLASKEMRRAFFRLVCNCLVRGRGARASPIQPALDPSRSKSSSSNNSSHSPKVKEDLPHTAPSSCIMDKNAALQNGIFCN
Description: as §1
Measurements of ^35S-GTPγS Binding: Membranes (1 to 10 μg protein) prepared as described above, were incubated in 96-well Scintiplates (PerkinElmer) with test compounds diluted in DMSO, in 180 μl of 20 mM HEPES, pH 7.4, 10 mM MgCl2, 2 μg/well Saponin, 0.2% fatty acid free BSA (Assay buffer), 140 mM NaCl and 1.7 μM GDP. The assay was initiated with the addition of 20 μl of 1.5 nM [35S]-GTPγS (1100 Ci/mmol; GE Healthcare) in assay buffer. After 60 min incubation at 30° C. on a shaker, plates were centrifuged for 10 min at 2000 RPM. Supernatant was discarded and membrane bound radioactivity was measured on a PerkinElmer 1450 MicroBeta counter. Triplicate samples were averaged and expressed as % response relative to S1P activation in absence of compound (n=2).

T1 sequence (P21453 whole entry, species assumed): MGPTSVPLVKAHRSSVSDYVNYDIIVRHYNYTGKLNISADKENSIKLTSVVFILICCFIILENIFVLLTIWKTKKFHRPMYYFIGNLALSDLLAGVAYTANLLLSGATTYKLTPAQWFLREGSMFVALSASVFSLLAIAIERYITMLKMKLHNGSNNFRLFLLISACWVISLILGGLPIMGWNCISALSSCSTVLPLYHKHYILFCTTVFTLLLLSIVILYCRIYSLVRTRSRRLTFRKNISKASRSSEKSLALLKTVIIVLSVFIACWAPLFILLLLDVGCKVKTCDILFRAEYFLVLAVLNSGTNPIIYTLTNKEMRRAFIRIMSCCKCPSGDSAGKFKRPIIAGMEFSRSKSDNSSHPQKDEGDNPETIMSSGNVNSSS

Ki (S1P1 [1])	EC50 (S1P1 [2])	EC50 (S1P3)	Structure (SMILES)
8 nM	4 nM	> 30000 nM	Cc1ccccc1-c1ccc(-c2nc(-c3ccccc3OC(F)(F)F)no2)cc1C [Compound I21, 5-(2,2′-dimethylbiphenyl-4-yl)-3-[2-(trifluoromethoxy)phenyl]-1,2,4-oxadiazole]
4 nM	2 nM	92 nM	COc1ccc(F)cc1-c1noc(-c2ccc(-c3ccccc3C)c(CN(C)C)c2)n1 [Compound I78, 1-{4-[3-(5-fluoro-2-methoxyphenyl)-1,2,4-oxadiazol-5-yl]-2′-methylbiphenyl-2-yl}-N,N-dimethylmethanamine]
4 nM	5 nM	2180 nM	COc1ccccc1-c1noc(-c2ccc(-c3cscc3C)c(OC)c2)n1 [Compound I48, 5-[3-methoxy-4-(4-methyl-3-thienyl)phenyl]-3-(2-methoxyphenyl)-1,2,4-oxadiazole]
46 nM	8 nM	> 20000 nM	COc1ccc(F)cc1-c1noc(-c2ccc(N3CCCCC3C)c(NS(C)(=O)=O)c2)n1 (stereo not drawn) [Compound I72, N-[5-[3-(5-fluoro-2-methoxyphenyl)-1,2,4-oxadiazol-5-yl]-2-(2-methylpiperidin-1-yl)phenyl]methanesulfonamide]
4 nM	1 nM	74 nM	COc1ccc(F)cc1-c1noc(-c2ccc(N3CCCCC3C)c(C#N)c2)n1 (stereo not drawn) [Compound I71, 5-[3-(5-fluoro-2-methoxyphenyl)-1,2,4-oxadiazol-5-yl]-2-(2-methylpiperidin-1-yl)benzonitrile]
3 nM	1 nM	125 nM	COc1ccc(F)cc1-c1noc(-c2ccc(N3CCCCC3C)c(C(F)(F)F)c2)n1 (stereo not drawn) [Compound I63, 1-[4-[3-(5-fluoro-2-methoxyphenyl)-1,2,4-oxadiazol-5-yl]-2-(trifluoromethyl)phenyl]-2-methylpiperidine]
16 nM	44 nM	3210 nM	COc1ccccc1-c1noc(-c2ccc(-c3ccccc3C)c(C)c2)n1 [Compound I20, 5-(2,2′-dimethylbiphenyl-4-yl)-3-(2-methoxyphenyl)-1,2,4-oxadiazole]
16 nM	10 nM	> 30000 nM	Cc1cc(-c2nc(-c3ccccc3OC(F)(F)F)no2)ccc1-c1ccccc1C(F)(F)F [Compound I23, 5-[2-methyl-2′-(trifluoromethyl)biphenyl-4-yl]-3-[2-(trifluoromethoxy)phenyl]-1,2,4-oxadiazole]
20 nM	66 nM	> 30000 nM	COc1ccccc1-c1noc(-c2ccc(C3CCCCC3)cc2)n1 [Compound I27, 5-(4-cyclohexylphenyl)-3-(2-methoxyphenyl)-1,2,4-oxadiazole]
2 nM	1 nM	> 20000 nM	COc1ccccc1-c1noc(-c2ccc(-c3cscc3C)c(C(F)(F)F)c2)n1 [Compound I57, 3-(2-methoxyphenyl)-5-[4-(4-methyl-3-thienyl)-3-(trifluoromethyl)phenyl]-1,2,4-oxadiazole]
8 nM	2 nM	> 30000 nM	Cc1ccccc1-c1ccc(-c2nc(-c3ccccc3OC(F)(F)F)no2)cc1C(F)(F)F [Compound I55, 5-[2′-methyl-2-(trifluoromethyl)biphenyl-4-yl]-3-[2-(trifluoromethoxy)phenyl]-1,2,4-oxadiazole]
1 nM	2 nM	617 nM	COc1ccc(F)cc1-c1noc(-c2ccc(N3CCCCC3)c(C(F)(F)F)c2)n1 [Compound I60, 1-[4-[3-(5-fluoro-2-methoxyphenyl)-1,2,4-oxadiazol-5-yl]-2-(trifluoromethyl)phenyl]piperidine]
11 nM	27 nM	> 20000 nM	COc1ccccc1-c1noc(-c2ccc(N3CCCCC3)c([N+](=O)[O-])c2)n1 [Compound I1, 1-{4-[3-(2-methoxyphenyl)-1,2,4-oxadiazol-5-yl]-2-nitrophenyl}piperidine]
3 nM	9 nM	5490 nM	COc1ccccc1-c1noc(-c2ccc(-c3cscc3C)c(C)c2)n1 [Compound I25, 3-(2-methoxyphenyl)-5-[3-methyl-4-(4-methyl-3-thienyl)phenyl]-1,2,4-oxadiazole]
53 nM	65 nM	5610 nM	COc1ccc(F)cc1-c1noc(-c2ccc(-c3ccccc3C)c(CO)c2)n1 [Compound I77, {4-[3-(5-fluoro-2-methoxyphenyl)-1,2,4-oxadiazol-5-yl]-2′-methylbiphenyl-2-yl}methanol]
18 nM	51 nM	> 30000 nM	COc1ccccc1-c1noc(-c2ccc(N3CCOCC3)c([N+](=O)[O-])c2)n1 [Compound I2, 4-{4-[3-(2-methoxyphenyl)-1,2,4-oxadiazol-5-yl]-2-nitrophenyl}morpholine]
7 nM	6 nM	> 30000 nM	COc1ccccc1-c1noc(-c2ccc(N3CCOCC3)c(C(F)(F)F)c2)n1 [Compound I18, 4-[4-[3-(2-methoxyphenyl)-1,2,4-oxadiazol-5-yl]-2-(trifluoromethyl)phenyl]morpholine]
5 nM	6 nM	> 20000 nM	CC1CCCCN1c1ccc(-c2nc(-c3ccccc3OC(F)(F)F)no2)cc1C(F)(F)F (stereo not drawn) [Compound I34, 2-methyl-1-[4-{3-[2-(trifluoromethoxy)phenyl]-1,2,4-oxadiazol-5-yl}-2-(trifluoromethyl)phenyl]piperidine]
